Like-named read-outs stand apart in the source and are kept apart here.
Tests used:
[1] = biological target: T1, PDE4B: The catalytic domain of human PDE4B from S152-S528 (Homo sapiens, UniProt Q07343); experiment: PDE4 IC50 determination by Scintillation Proximity Assay, PDE4B; format: biochemical
T1 construct: His6 (N); thrombin cleavage site (N); made in house; host or cells: E. coli
Method in brief: (§1)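 Scintillation counts reflected [^3H]AMP captured on yttrium silicate SPA beads after enzyme hydrolysed [^3H]cAMP for 30 min at 30°. PDE4B was used at 80 ng/ml and PDE4D at 4 ng/ml. IC50 values came from non-linear regression.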

PDE4D = biological target: T2, PDE4D (Homo sapiens, UniProt Q08499); experiment: PDE4 IC50 determination by Scintillation Proximity Assay, PDE4D; format: biochemical
T2 construct: PDE4D: The catalytic domain of human PDE4B from S3 16-V692; His6 (N); thrombin cleavage site (N); made in house; host or cells: E. coli
Method in brief: as §1

[2] = second part of Table 2B (2-23 to 2-103), column 3, column is PDE4B in first part, read-out: IC 50 vs. indicated assay h TNFα
[3] = second part of Table 2B (2-23 to 2-103), column 5, column is PDE4D in first part, read-out: IC 50 vs. indicated assay h TNFα
[4] = Table 3A, Formula III compounds, read-out: IC50 PDE4B
[5] = Table 3A, Formula III compounds, read-out: IC50 PDE4D

T2 sequence (Q08499 380-756): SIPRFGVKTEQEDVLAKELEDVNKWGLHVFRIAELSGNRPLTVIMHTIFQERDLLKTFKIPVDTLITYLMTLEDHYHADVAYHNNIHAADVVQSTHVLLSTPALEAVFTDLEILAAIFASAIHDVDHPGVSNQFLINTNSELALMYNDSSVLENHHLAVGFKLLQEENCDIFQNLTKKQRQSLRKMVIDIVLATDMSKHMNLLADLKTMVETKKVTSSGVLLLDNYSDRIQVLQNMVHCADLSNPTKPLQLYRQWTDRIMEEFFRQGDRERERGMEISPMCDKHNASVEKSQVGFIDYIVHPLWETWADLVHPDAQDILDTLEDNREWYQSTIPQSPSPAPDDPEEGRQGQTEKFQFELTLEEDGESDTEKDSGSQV
T1 sequence (Q07343 with tags, fused parts or gaps): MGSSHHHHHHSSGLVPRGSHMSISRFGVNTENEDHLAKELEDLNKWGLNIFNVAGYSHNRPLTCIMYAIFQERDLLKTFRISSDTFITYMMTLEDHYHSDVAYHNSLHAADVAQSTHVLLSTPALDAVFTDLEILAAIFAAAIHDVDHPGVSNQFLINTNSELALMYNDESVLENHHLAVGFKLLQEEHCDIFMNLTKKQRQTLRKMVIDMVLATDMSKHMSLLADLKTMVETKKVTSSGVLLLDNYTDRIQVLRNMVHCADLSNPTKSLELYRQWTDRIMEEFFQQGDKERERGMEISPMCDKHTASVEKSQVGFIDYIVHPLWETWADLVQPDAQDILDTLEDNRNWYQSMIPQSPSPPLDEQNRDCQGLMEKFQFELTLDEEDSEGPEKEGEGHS

| Structure (SMILES) | IC50 [1, 2] [µM] | IC50 (PDE4D; [3]) [µM] | also measured |
| --- | --- | --- | --- |
| COc1cccc(C(=O)c2sc(Nc3ccc(Oc4ccccc4)cc3)nc2N)c1 [Compound 2-65, [4-Amino-2-(4-phenoxy-phenylamino)-thiazol-5-yl]-(3-methoxy-phenyl)-methanone] | < 10 | < 10 |  |
| Nc1nc(Nc2ccc(Oc3ccccc3)cc2)sc1C(=O)c1ccccc1Cl [Compound 2-66, [4-Amino-2-(4-phenoxy-phenylamino)-thiazol-5-yl]-(2-chloro-phenyl)-methanone] | < 10 | > 10 |  |
| Nc1nc(NCc2ccccc2)sc1C(=O)c1ccccc1 [Compound 2-68, (4-Amino-2-benzylamino-thiazol-5-yl)-phenyl-methanone] | < 10 | < 10 |  |
| COc1cccc(C(=O)c2sc(NC(C)C)nc2N)c1 [Compound 2-69, (4-Amino-2-isopropylamino-thiazol-5-yl)-(3-methoxy-phenyl)-methanone] | < 10 | > 10 |  |
| Nc1nc(Nc2cccc3ccccc23)sc1C(=O)c1ccccc1 [Compound 2-70, [4-Amino-2-(naphthalen-1-ylamino)-thiazol-5-yl]-phenyl-methanone] | < 10 | < 10 |  |
| Nc1nc(Nc2cccnc2)sc1C(=O)c1ccccc1 [Compound 2-71, [4-Amino-2-(pyridin-3-ylamino)-thiazol-5-yl]-phenyl-methanone] | < 10 | < 10 |  |
| COc1ccc(C(=O)c2sc(Nc3cccnc3)nc2N)cc1 [Compound 2-72, [4-Amino-2-(pyridin-3-ylamino)-thiazol-5-yl]-(4-methoxy-phenyl)-methanone] | < 10 | < 10 |  |
| Nc1nc(Nc2ccccn2)sc1C(=O)c1ccccc1 [Compound 2-73, [4-Amino-2-(pyridin-2-ylamino)-thiazol-5-yl]-phenyl-methanone] | < 10 | > 10 |  |
| Nc1nc(Nc2ccc(Oc3ccccc3)nc2)sc1C(=O)c1ccccc1 [Compound 2-74, [4-Amino-2-(6-phenoxy-pyridin-3-ylamino)-thiazol-5-yl]-phenyl-methanone] | > 10 | < 10 |  |
| Nc1nc(NC2CCCC2)sc1C(=O)c1ccccc1Cl [Compound 2-75, (4-Amino-2-cyclopentylamino-thiazol-5-yl)-(2-chloro-phenyl)-methanone] | > 10 | > 10 |  |
| Nc1nc(NC2CC2)sc1C(=O)c1ccc(Oc2ccccc2)cc1 [Compound 2-77, (4-Amino-2-cyclopropylamino-thiazol-5-yl)-(4-phenoxy-phenyl)-methanone] | < 10 | < 10 |  |
| COc1ccc(C(=O)c2sc(NC3CCCC3)nc2N)cc1 [Compound 2-78, (4-Amino-2-cyclopentylamino-thiazol-5-yl)-(4-methoxy-phenyl)-methanone] |  |  | IC50 [1]: < 10 µM; IC50 (PDE4D): < 10 µM |
| COc1ccc(C(=O)c2sc(NC3CC3)nc2N)cc1 [Compound 2-79, (4-Amino-2-cyclopropylamino-thiazol-5-yl)-(4-methoxy-phenyl)-methanone] | < 10 | < 10 |  |
| Nc1nc(NC2CC2)sc1C(=O)c1cccc(Cl)c1 [Compound 2-81, (4-Amino-2-cyclopropylamino-thiazol-5-yl)-(3-chloro-phenyl)-methanone] | < 10 | < 10 |  |
| Nc1nc(NC2CCCC2)sc1C(=O)c1cccc(C(F)(F)F)c1 [Compound 2-82, (4-Amino-2-cyclopentylamino-thiazol-5-yl)-(3-trifluoromethyl-phenyl)-methanone] | < 10 | < 10 |  |
| Nc1nc(NC2CCCC2)sc1C(=O)c1ccc(OC(F)F)cc1 [Compound 2-84, (4-Amino-2-cyclopentylamino-thiazol-5-yl)-(4-difluoromethoxy-phenyl)-methanone] | < 10 | < 10 |  |
| Nc1nc(NC2CC2)sc1C(=O)c1ccc(OC(F)F)cc1 [Compound 2-85, (4-Amino-2-thiazol-5-yl)-(4-difluoromethoxy-phenyl)-methanone] | < 10 | > 10 |  |
| COc1cccc(C(=O)c2sc(NC3CCCC3)nc2N)c1 [Compound 2-86, (4-Amino-2-cyclopentylamino-thiazol-5-yl)-(3-methoxy-phenyl)-methanone] | < 10 | < 10 |  |
| COc1cccc(C(=O)c2sc(NC3CC3)nc2N)c1 [Compound 2-87, (4-Amino-2-cyclopropylamino-thiazol-5-yl)-(3-methoxy-phenyl)-methanone] | < 10 | < 10 |  |
| Nc1nc(NC2CC2)sc1C(=O)c1cccc(C(F)(F)F)c1 [Compound 2-88, (4-Amino-2-cyclopropylamino-thiazol-5-yl)-(3-trifluoromethyl-phenyl)-methanone] | < 10 | < 10 |  |
| Nc1nc(Nc2ccccc2)sc1C(=O)C1CCCC1 [Compound 2-89, (4-Amino-2-phenylamino-thiazol-5-yl)-cyclopentyl-methanone] | < 10 | < 10 |  |

| Structure (SMILES) | IC50 [1, 2] [µM] | IC50 (PDE4D; [3]) [µM] | also measured |
| --- | --- | --- | --- |
| Nc1nc(Nc2ccccc2)sc1C(=O)C1CCCCC1 [Compound 2-90, (4-Amino-2-phenylamino-thiazol-5-yl)-cyclohexyl-methanone] | < 10 | < 10 |  |
| Nc1nc(Nc2ccc(Cl)cc2)sc1C(=O)C1CCCCC1 [Compound 2-91, [4-Amino-2-(4-chloro-phenylamino)-thiazol-5-yl]-cyclohexyl-methanone] | < 10 | > 10 |  |
| Nc1nc(Nc2c(Cl)cccc2Cl)sc1C(=O)CC1CCCC1 [Compound 2-94, 1-[4-Amino-2-(2,6-dichloro-phenylamino)-thiazol-5-yl]-2-cyclopentyl-ethanone] | > 10 | > 10 |  |
| Nc1nc(Nc2ccccc2)sc1C(=O)C1CC1 [Compound 2-95, (4-Amino-2-phenylamino-thiazol-5-yl)-cyclopropyl-methanone] | < 10 | > 10 |  |
| Nc1nc(Nc2c(Cl)cccc2Cl)sc1C(=O)C1CC1 [Compound 2-96, [4-Amino-2-(2,6-dichloro-phenylamino)-thiazol-5-yl]-cyclopropyl-methanone] | < 10 | < 10 |  |
| Nc1nc(Nc2ccc(Oc3ccccc3)cc2)sc1C(=O)C1CC1 [Compound 2-97, [4-Amino-2-(4-phenoxy-phenylamino)-thiazol-5-yl]-cyclopropyl-methanone] | < 10 | < 10 |  |
| Nc1nc(Nc2ccccc2F)sc1C(=O)C1CCCC1 [Compound 2-98, [4-Amino-2-(2-fluoro-phenylamino)-thiazol-5-yl]-cyclopentyl-methanone] | < 10 | < 10 |  |
| COc1ccc(Nc2nc(N)c(C(=O)C3CCCC3)s2)cc1 [Compound 2-99, [4-Amino-2-(4-methoxy-phenylamino)-thiazol-5-yl]-cyclopentyl-methanone] | > 10 | > 10 |  |
| N#Cc1cccc(Nc2nc(N)c(C(=O)C3CCCC3)s2)c1 [Compound 2-100, 3-(4-Amino-5-cyclopentanecarbonyl-thiazol-2-ylamino)-benzonitrile] | < 10 | < 10 |  |
| Nc1nc(Nc2ccc(Oc3ccccc3)cc2)sc1C(=O)C1CCCC1 [Compound 2-101, [4-Amino-2-(4-phenoxy-phenylamino)-thiazol-5-yl]-cyclopentyl-methanone] | > 10 | > 10 |  |
| Nc1nc(NC2CCCC2)sc1C(=O)c1ccsc1 [Compound 2-102, (4-Amino-2-cyclopentylamino-thiazol-5-yl)-thiophen-3-yl-methanone] | < 10 | < 10 |  |
| Nc1nc(NC2CCCC2)sc1C(=O)c1nc2ccccc2s1 [Compound 2-103, (4-Amino-2-cyclopentylamino-thiazol-5-yl)-benzothiazol-2-yl-methanone] | < 10 | < 10 |  |
| O=S(=O)(Nc1cccc2cccnc12)c1cccs1 [Compound 3-1, Thiophene-2-sulfonic acid guinolin-8-ylamide] |  |  | IC50 [1, 4]: > 10 µM; IC50 (PDE4D; [5]): > 10 µM |
| COc1cc(NS(=O)(=O)c2ccc(Br)s2)c2ncccc2c1 [Compound 3-2, 5-Bromo-thiophene-2-sulfonic acid (6-methoxy-quinolin-8-yl)-amide] |  |  | IC50 [1, 4]: > 10 µM; IC50 (PDE4D; [5]): > 10 µM |
| Cc1ccc2cccnc2c1NS(=O)(=O)c1ccc(Cl)s1 [Compound 3-3, 5-Chloro-thiophene-2-sulfonic acid (7-methyl-quinolin-8-yl)-amide] |  |  | IC50 [1, 4]: > 10 µM; IC50 (PDE4D; [5]): > 10 µM |
| O=S(=O)(Nc1cccc2cccnc12)c1ccc(Br)s1 [Compound 3-4, 5-Bromo-thiophene-2-sulfonic acid quinolin-8-ylamide] |  |  | IC50 [1, 4]: > 10 µM; IC50 (PDE4D; [5]): > 10 µM |
| Cc1ccc2cccnc2c1NS(=O)(=O)c1cccs1 [Compound 3-5, Thiophene-2-sulfonic acid (7-methyl-quinolin-8-yl)-amide] |  |  | IC50 [1, 4]: > 10 µM; IC50 (PDE4D; [5]): > 10 µM |
| Cc1ccc2cccnc2c1NS(=O)(=O)c1ccc(Br)s1 [Compound 3-6, 5-Bromo-thiophene-2-sulfonic acid (7-methyl-quinolin-8-yl)-amide] |  |  | IC50 [1, 4]: > 10 µM; IC50 (PDE4D; [5]): > 10 µM |
| O=S(=O)(Nc1cccc2cccnc12)c1ccc(Cl)s1 [Compound 3-7, 5-Chloro-thiophene-2-sulfonic acid quinolin-8-ylamide] |  |  | IC50 [1, 4]: > 10 µM; IC50 (PDE4D; [5]): > 10 µM |
| Cc1ccc2cccnc2c1NS(=O)(=O)c1cc(Cl)c(Cl)s1 [Compound 3-8, 4,5-Dichloro-thiophene-2-sulfonic acid (7-methyl-quinolin-8-yl)-amide] |  |  | IC50 [1, 4]: > 10 µM; IC50 (PDE4D; [5]): > 10 µM |
